Assays:
[1] = target: T1, Oryza sativa αDOX (SEQ ID NO: 1), fatty acid alpha-dioxygenase, Q9M5J1, N-terminal His-tag variant SEQ ID NO: 249 (Oryza sativa subsp. japonica, UniProt Q2QRV3); test: Alpha-dioxygenase activity assay (oxygen consumption, TON); type: biochemical; conditions: fatty acid 100 µM, enzyme 6 ppm, 50 mM HEPES pH 9.0, 37°C; initial rate of oxygen consumption / enzyme concentration
T1 construct: made in house; host or cells: Escherichia coli BL21 (DE3), pET30a
T1 sequence (Q2QRV3 1-618): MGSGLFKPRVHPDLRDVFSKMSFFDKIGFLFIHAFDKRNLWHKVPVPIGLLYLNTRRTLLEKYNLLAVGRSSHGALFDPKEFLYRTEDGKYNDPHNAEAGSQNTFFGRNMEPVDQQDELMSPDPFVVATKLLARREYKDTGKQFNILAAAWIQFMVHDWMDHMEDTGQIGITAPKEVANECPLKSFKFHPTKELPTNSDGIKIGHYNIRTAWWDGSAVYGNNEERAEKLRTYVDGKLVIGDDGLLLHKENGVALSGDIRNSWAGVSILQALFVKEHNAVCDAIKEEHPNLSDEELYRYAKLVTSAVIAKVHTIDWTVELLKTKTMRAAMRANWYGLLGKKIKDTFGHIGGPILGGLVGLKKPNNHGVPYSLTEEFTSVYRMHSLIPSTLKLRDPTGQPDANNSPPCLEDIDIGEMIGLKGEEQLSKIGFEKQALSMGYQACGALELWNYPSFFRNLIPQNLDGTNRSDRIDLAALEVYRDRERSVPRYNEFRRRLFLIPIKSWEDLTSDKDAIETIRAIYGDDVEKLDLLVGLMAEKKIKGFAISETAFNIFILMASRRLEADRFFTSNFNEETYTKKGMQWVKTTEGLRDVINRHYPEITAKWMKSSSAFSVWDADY
Description: (§1) Oryza sativa αDOX (SEQ ID NO: 1) is a fatty acid alpha-dioxygenase that converts fatty acids into the corresponding 2-hydroperoxy fatty acids and is included as an example of the present invention. A codon optimized gene (SEQ ID NO: 248) encoding for an alpha-dioxygenase variant (SEQ ID NO: 249), including an N-terminal amino acid sequence containing a His-tag was designed and synthesized by Genscript. After gene synthesis, the protein was expressed and purified. In brief, the complete synthetic gene sequence was subcloned into a pET30a vector using the NdeI/HindIII cloning sites. For heterologous expression, Escherichia coli BL21 (DE3) cells were transformed with the recombinant plasmid and a single colony was inoculated into LB medium containing kanamycin (50 mg/L). A pre-starter culture was then inoculated into flasks containing Magic Media (Thermo Fisher, Catalog # K6803) supplemented with kanamycin (50 mg/L) and incubated at 16 °C for 72 h. At an OD600nm = 0.5 - 1.0, 5-aminolevulinic acid (final concentration 0.5 mM) was added. Cells were harvested by centrifugation at 5000 rpm and 4°C and the pellet was lysed using a bacterial cell lysis buffer (B-PER - Themo Fisher, Waltham, MA). After centrifugation, the supernatant was collected, and the protein was purified by one-step purification using HisPur™ Ni-NTA Spin Columns (Thermo Scientific, Catalog # 88226) and standard protocols known in the art. The protein was concentrated using a 10 kDa MW cutoff Amicon Ultra centrifugal filter unit (Millipore Sigma, Catalog# UFC901024), followed by desalting using a disposable PD-10 desalting column (GE Healthcare Life Sciences, Catalog# 17085101) and a buffer containing 50 mM Tris-HCl, 500 mM NaCl, and 10% Glycerol at pH 8.0. […]
(§2) Reactions with alpha-dioxygenases were performed as follows. […] The reaction was incubated for up to 10 minutes at 37°C with 200 rpm agitation and the conversion was monitored using an oxygen sensor. The TON (in s-1) were calculated as the ratio between the initial rate of oxygen consumption (in µM/s) and the concentration of enzyme (in µM). […]

[2] = tested on: Citrus sinensis αDOX (SEQ ID NO: 11), fatty acid alpha-dioxygenase, A0A067FHE4, N-terminal His-tag variant SEQ ID NO: 269 (comparative); test: as above; type: biochemical; conditions: fatty acid 100 µM, enzyme 6 ppm, 50 mM HEPES pH 9.0, 37°C; initial rate of oxygen consumption / enzyme concentration
Description: as §1, with “Citrus sinensis αDOX” for “Oryza sativa αDOX”, “NO: 11)” for “NO: 1)”, “as a comparative” for “as an”, “NO: 268)” for “NO: 248)”, “NO: 269),” for “NO: 249),”
as §2

What does the source list for `CCCCCCCC/C=C\CCCCCCCC(=O)O` [Oleic Acid]?
Oleic Acid, TON [1]: 5.54 s⁻¹; Oleic Acid, TON [2]: 0.00 s⁻¹

Which “Palmitic Acid, TON” value [1] does the source give for `CCCCCCCCCCCCCCCC(=O)O` [Palmitic Acid] here?
The value was 20.58 s⁻¹.

And the “Palmitic Acid, TON” value [2]?
Its value is 0.29 s⁻¹.

For `CCCCCCCCCCCCCCCCCC(=O)O` [Stearic Acid], which “Stearic Acid, TON” value [1] is on record?
Its value is 8.02 s⁻¹.

What about the “Stearic Acid, TON” value [2] of the same compound?
Its value is 0.00 s⁻¹.

From patent EP3981864A1, “DETERGENT COMPOSITION” (priority 2020, dated 2022)
